From patent US9458138B1, “Pyrrole compounds as granzyme B inhibitors” (viDA Therapeutics Inc., priority 2014, dated 2016) come the findings set out here.

Assay [1] deals with T1, GzmB (Homo sapiens, UniProt P10144). In words: Inhibition of Fibronectin Cleavage by GzmB (Example D8). It counts as biochemical. The note with it: 20 nM granzyme B, Hilyte Fluor 488 labeled Fibronectin, 30° C.; for inhibition at 0.62 µM: 0.62 uM inhibitor, read-out: Percent Inhibition at Inhibitor Concentration 0.62 uM; for inhibition at 5.56 µM: 5.56 uM inhibitor, read-out: Percent Inhibition at Inhibitor Concentration 5.56 uM; for inhibition at 50 µM: 50 uM inhibitor, read-out: Percent Inhibition at Inhibitor Concentration 50 uM. As for the experimental part:
Black, 96 well high-binding assay plates (Griener Bio-one) were treated overnight at 4° C. with 40 uL of 8 ug/mL Hilyte Fluor 488 labeled Fibronectin (Cytoskeleton, Inc). After fibronectin coating, plates were washed 3 times in buffer (20 mM Tris-HCl, pH 7.4, 20 mM NaCl) then once with granzyme B assay buffer (50 mM HEPES, pH 7.5, 0.1% CHAPS). After washing, 50 uL of granzyme B assay buffer was added to each fibronectin-coated well. In a separate non-binding 96 well assay plate 5 uL of 20× inhibitor serial dilution stocks were added to 45 uL of 2.22× GzmB mix to establish inhibition (enzyme/inhibitor mixes were all prepared in granzyme B assay buffer and were incubated first at room temperature for 20 minutes, then at 30° C. for another 10 minutes). After incubation, 50 uL of this 2× enzyme/inhibitor mix was added to the corresponding coated well to initiate fibronectin cleavage (20 nM final granzyme B concentration, 8-point inhibitor dilution series starting at 50 uM). The assay was conducted at 30° C. in the TECAN plate reader (TECAN INFINITE® M1000 Pro), which was programmed to monitor the kinetic fluorescence polarization signal (filter set Ex/Em 470 nm/527 nm) with readings taken every minute, for 1 hour. Proteolytic activity was evaluated as the rate of fluorescence enhancement in the parallel emission over the linear range of the reaction. % Inhibition values were calculated from assay controls and the resulting date is shown in Table 7.

In assay [2] the target is T1, GzmB. In words: Inhibition of Cell Detachment by GzmB Assay (Example D7). Format: cell-based. The note with it: 50 uM inhibitor; 100 nM GzmB; HDFa primary human fibroblasts; 7 hours; MTS absorbance 490 nm; read-out: Percent Inhibition of cell detachment at 50 uM. As for the experimental part: HDFa primary human fibroblasts were plated at 10 k/well in 200 ul, approximately 20 hrs before treatment. The next day, controls and 100 nM GzmB (recombinant, human) plus or minus inhibitor treatments were prepared in serum-free media. GzmB and inhibitor were incubated for 20 minutes at RT before adding to cells. Before addition, media and serum was removed from the cells and the cells were washed with PBS (1×), using pipettes to prevent disturbing the cells. Treatment preparations (100 ul) were added to the wells and incubated for 7 hours in a tissue culture incubator. After 7 hours, media and treatments were removed and the cells were washed with PBS (1×) to removed detached cells, using pipettes only. Phase pictures were taken then the PBS was removed and replaced with 100 uL of serum-free media and 20 uL of MTS and the cells were allowed to incubate for 3 hours in a cell culture incubator. After 3 hours the absorbance was read at 490 nm and a percent inhibition value for the treatments with inhibitors was determined from the control wells.

T1 sequence (P10144 21-247): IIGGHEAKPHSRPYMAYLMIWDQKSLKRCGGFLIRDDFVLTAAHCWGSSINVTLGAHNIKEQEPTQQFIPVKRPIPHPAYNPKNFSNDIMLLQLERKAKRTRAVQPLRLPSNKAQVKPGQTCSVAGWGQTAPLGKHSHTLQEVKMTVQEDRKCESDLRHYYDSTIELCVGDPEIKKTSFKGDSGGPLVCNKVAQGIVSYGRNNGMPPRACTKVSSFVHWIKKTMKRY

`O=C(O)CCC(=O)NC(c1ccc(C(=O)N2C[C@@H](O)C[C@H]2C(=O)NCc2nn[nH]n2)[nH]1)C1CCCC1` (stereo partly drawn) [Compound C8, 3-{[cyclopentyl({5-[(2S,4S)-4-hydroxy-2-[(2H-1,2,3,4-tetrazol-5-ylmethyl)carbamoyl]pyrrolidine-1-carbonyl]-1H-pyrrol-2-yl})methyl]carbamoyl}propanoic acid]: on GzmB [1], the inhibition at 0.62 µM is 63%, the inhibition at 5.56 µM amounted to 83% and the inhibition at 50 µM was 94%.
In the case of `CC(C)C(NC(=O)CCC(=O)O)c1ccc(C(=O)NCC(=O)NCc2nn[nH]n2)[nH]1` (racemic) [Compound C3, 3-{[2-methyl-1-[5-({[(2H-1,2,3,4-tetrazol-5-ylmethyl)carbamoyl]methyl}carbamoyl)-1H-pyrrol-2-yl]propyl]carbamoyl}propanoic acid], the inhibition at 50 µM at GzmB [2] came out at 91%.
As for `CC(C)C(NC(=O)CCC(=O)O)c1ccc(C(=O)N2CCC[C@H]2C(=O)NCc2nn[nH]n2)[nH]1` (mixture of isomers) [Compound C4, 3-{[2-methyl-1-{5-[(2S)-2-[(2H-1,2,3,4-tetrazol-5-ylmethyl)carbamoyl]pyrrolidine-1-carbonyl]-1H-pyrrol-2-yl}propyl]carbamoyl}propanoic acid], on GzmB [1], the inhibition at 0.62 µM was 28%, the inhibition at 5.56 µM is 56% and the inhibition at 50 µM was found to be 78%.
